Read-outs that look alike come from different tables or passages of the source.
Tested on: PSMA + PC-3 PiP and PSMA − PC-3 flu tumor xenografts
Settings: for Biodistribution: PC-3 PiP: PSMA+ tumor xenograft; for Biodistribution: PC-3 flu: PSMA− tumor xenograft; for PSMA positive tumor uptake (in words): biodistributions of Tables 2, 3, 9, 10
[1] = 21 H post-injection, comparative Table 13

## O=C(O)CC[C@H](NC(=O)N[C@@H](CCC(=O)NCCc1ccc([131I])cc1)C(=O)O)C(=O)O [[^131I]HS-549]
1 H post-injection
  Biodistribution: Lrg Int.: 0.52 ± 0.12 % ID/g
  Biodistribution: Sm int.: 1.98 ± 0.30 % ID/g
  Biodistribution: bladder: 4.34 ± 2.16 % ID/g
  Biodistribution: blood: 5.90 ± 1.05 % ID/g
  Biodistribution: heart: 2.30 ± 0.63 % ID/g
  Biodistribution: kidney: 106 ± 18.9 % ID/g
  Biodistribution: liver: 21.2 ± 4.14 % ID/g
  Biodistribution: lung: 4.60 ± 1.09 % ID/g
  Biodistribution: muscle: 0.86 ± 0.26 % ID/g
  Biodistribution: spleen: 6.76 ± 3.42 % ID/g
  Biodistribution: stomach: 0.92 ± 0.20 % ID/g
  Biodistribution: thyroid: 1.17 ± 0.43 % ID/g
  Biodistribution: PC-3 PiP: 78.1 ± 19.1 % ID/g
  Biodistribution: PC-3 flu: 2.21 ± 0.53 % ID/g
2 H post-injection
  Biodistribution: Lrg Int.: 1.32 ± 0.25 % ID/g
  Biodistribution: Sm int.: 2.42 ± 0.40 % ID/g
  Biodistribution: bladder: 2.34 ± 1.04 % ID/g
  Biodistribution: blood: 2.92 ± 0.32 % ID/g
  Biodistribution: heart: 1.14 ± 0.18 % ID/g
  Biodistribution: kidney: 96.6 ± 39.1 % ID/g
  Biodistribution: liver: 26.0 ± 3.09 % ID/g
  Biodistribution: lung: 2.73 ± 0.66 % ID/g
  Biodistribution: muscle: 0.46 ± 0.12 % ID/g
  Biodistribution: spleen: 2.71 ± 0.85 % ID/g
  Biodistribution: stomach: 0.47 ± 0.17 % ID/g
  Biodistribution: thyroid: 0.69 ± 0.29 % ID/g
  tumor/kidney ratio: 0.8
  Biodistribution: PC-3 PiP: 74.7 ± 13.1 % ID/g
  Biodistribution: PC-3 flu: 1.51 ± 0.30 % ID/g
21 H post-injection
  Biodistribution: Lrg Int.: 0.63 ± 0.39 % ID/g
  Biodistribution: Sm int.: 0.37 ± 0.06 % ID/g
  Biodistribution: bladder: 0.65 ± 0.20 % ID/g
  Biodistribution: blood: 1.39 ± 0.35 % ID/g
  Biodistribution: heart: 0.41 ± 0.09 % ID/g
  Biodistribution: kidney: 3.13 ± 1.65 % ID/g
  Biodistribution: liver: 1.86 ± 0.51 % ID/g
  Biodistribution: lung: 0.87 ± 0.27 % ID/g
  Biodistribution: muscle: 0.16 ± 0.04 % ID/g
  Biodistribution: spleen: 0.29 ± 0.12 % ID/g
  Biodistribution: stomach: 0.14 ± 0.04 % ID/g
  Biodistribution: thyroid: 0.36 ± 0.05 % ID/g
  tumor/kidney ratio: 7.2
  Biodistribution: PC-3 PiP: 22.6 ± 22.1 % ID/g
  Biodistribution: PC-3 flu: 0.44 ± 0.18 % ID/g
[1]
  Non-target organ uptake: spleen: 0.3 % D/g
  Non-target organ uptake: stomach: 0.14 % D/g
  Non-target organ uptake: thyroid: 0.36 % D/g
  PSMA positive tumor uptake (in words): demonstrated PSMA positive tumor uptake
Compared with [^131I]YC-I-27 and [^211At]YC-I-27
  Clearance from the kidneys (in words): clear from the kidneys giving higher tumor to kidney ratios

## O=C(O)CC[C@H](NC(=O)N[C@@H](CCCCNC(=O)c1ccc([131I])cc1)C(=O)O)C(=O)O [[^131I]YC-I-27]
1 H post-injection
  Biodistribution: Sm int.: 1.83 ± 0.41 % ID/g
  Biodistribution: bladder: 2.99 ± 0.42 % ID/g
  Biodistribution: blood: 1.57 ± 0.69 % ID/g
  Biodistribution: heart: 1.88 ± 0.66 % ID/g
  Biodistribution: liver: 7.37 ± 1.29 % ID/g
  Biodistribution: lung: 4.67 ± 0.63 % ID/g
  Biodistribution: muscle: 0.73 ± 0.22 % ID/g
  Biodistribution: spleen: 21.2 ± 3.62 % ID/g
  Biodistribution: stomach: 0.92 ± 0.16 % ID/g
  Biodistribution: thyroid: 0.45 ± 0.14 % ID/g
  Biodistribution: PC-3 PiP: 13.1 ± 5.55 % ID/g
  Biodistribution: PC-3 flu: 0.62 ± 0.11 % ID/g
2 H post-injection
  Biodistribution: Sm int.: 1.92 ± 0.55 % ID/g
  Biodistribution: bladder: 2.96 ± 1.12 % ID/g
  Biodistribution: blood: 0.86 ± 0.20 % ID/g
  Biodistribution: heart: 1.31 ± 0.58 % ID/g
  Biodistribution: liver: 5.69 ± 1.49 % ID/g
  Biodistribution: lung: 4.92 ± 1.95 % ID/g
  Biodistribution: muscle: 0.62 ± 0.19 % ID/g
  Biodistribution: spleen: 26.25 ± 15.11 % ID/g
  Biodistribution: stomach: 0.71 ± 0.46 % ID/g
  Biodistribution: thyroid: 0.24 ± 0.18 % ID/g
  Biodistribution: PC-3 PiP: 15.5 ± 4.19 % ID/g
  Biodistribution: PC-3 flu: 0.40 ± 0.11 % ID/g
4 H post-injection
  Biodistribution: Sm int.: 1.37 ± 0.51 % ID/g
  Biodistribution: bladder: 1.37 ± 0.48 % ID/g
  Biodistribution: blood: 0.59 ± 0.27 % ID/g
  Biodistribution: heart: 0.87 ± 0.24 % ID/g
  Biodistribution: liver: 3.21 ± 1.14 % ID/g
  Biodistribution: lung: 2.72 ± 1.01 % ID/g
  Biodistribution: muscle: 0.43 ± 0.30 % ID/g
  Biodistribution: spleen: 18.2 ± 6.19 % ID/g
  Biodistribution: stomach: 0.69 ± 0.23 % ID/g
  Biodistribution: thyroid: 0.10 ± 0.22 % ID/g
  Biodistribution: PC-3 PiP: 16.3 ± 3.80 % ID/g
  Biodistribution: PC-3 flu: 0.22 ± 0.07 % ID/g
21 H post-injection
  Biodistribution: Sm int.: 0.33 ± 0.12 % ID/g
  Biodistribution: bladder: 0.48 ± 0.09 % ID/g
  Biodistribution: blood: 0.16 ± 0.06 % ID/g
  Biodistribution: heart: 0.46 ± 0.22 % ID/g
  Biodistribution: liver: 0.56 ± 0.09 % ID/g
  Biodistribution: lung: 1.63 ± 0.47 % ID/g
  Biodistribution: muscle: 0.14 ± 0.03 % ID/g
  Biodistribution: spleen: 5.25 ± 1.51 % ID/g
  Biodistribution: stomach: 0.40 ± 0.07 % ID/g
  Biodistribution: thyroid: 0.13 ± 0.11 % ID/g
  Biodistribution: PC-3 PiP: 25.6 ± 10.2 % ID/g
  Biodistribution: PC-3 flu: 0.06 ± 0.01 % ID/g
  PSMA positive tumor uptake (in words): demonstrated PSMA positive tumor uptake

## N=C(N)NCc1ccc(C(=O)NCCCCC(NC(=O)CCCCCCC(=O)NCCCC[C@H](NC(=O)N[C@@H](CCC(=O)O)C(=O)O)C(=O)O)C(=O)O)cc1[211At] (some centres unmarked) [[^211At] labeled PSMA-904]
1 H post-injection
  Biodistribution: Lrg Int.: 0.75 ± 0.98 % ID/g
  Biodistribution: Sm int.: 33.9 ± 5.49 % ID/g
  Biodistribution: bladder: 1.17 ± 0.20 % ID/g
  Biodistribution: blood: 0.65 ± 0.33 % ID/g
  Biodistribution: heart: 0.84 ± 0.27 % ID/g
  Biodistribution: kidney: 86.5 ± 15.5 % ID/g
  Biodistribution: liver: 5.11 ± 4.13 % ID/g
  Biodistribution: lung: 2.24 ± 0.51 % ID/g
  Biodistribution: muscle: 0.38 ± 0.16 % ID/g
  Biodistribution: spleen: 9.51 ± 2.76 % ID/g
  Biodistribution: stomach: 1.64 ± 0.62 % ID/g
  Biodistribution: thyroid: 0.51 ± 0.16 % ID/g
  Biodistribution: PC-3 PiP: 22.7 ± 5.42 % ID/g
  Biodistribution: PC-3 flu: 0.80 ± 0.30 % ID/g
2 H post-injection
  Biodistribution: Lrg Int.: 26.7 ± 15.3 % ID/g
  Biodistribution: Sm int.: 13.8 ± 10.9 % ID/g
  Biodistribution: bladder: 1.30 ± 0.24 % ID/g
  Biodistribution: blood: 0.35 ± 0.03 % ID/g
  Biodistribution: heart: 0.76 ± 0.11 % ID/g
  Biodistribution: kidney: 87.7 ± 11.0 % ID/g
  Biodistribution: liver: 3.80 ± 2.39 % ID/g
  Biodistribution: lung: 1.96 ± 0.26 % ID/g
  Biodistribution: muscle: 0.21 ± 0.03 % ID/g
  Biodistribution: spleen: 4.31 ± 1.96 % ID/g
  Biodistribution: stomach: 2.86 ± 0.67 % ID/g
  Biodistribution: thyroid: 1.03 ± 0.26 % ID/g
  Biodistribution: PC-3 PiP: 21.1 ± 6.16 % ID/g
  Biodistribution: PC-3 flu: 0.52 ± 0.05 % ID/g
21 H post-injection
  Biodistribution: Lrg Int.: 8.55 ± 5.07 % ID/g
  Biodistribution: Sm int.: 1.51 ± 0.91 % ID/g
  Biodistribution: bladder: 1.99 ± 0.54 % ID/g
  Biodistribution: blood: 0.48 ± 0.13 % ID/g
  Biodistribution: heart: 1.12 ± 0.27 % ID/g
  Biodistribution: kidney: 4.38 ± 3.46 % ID/g
  Biodistribution: liver: 0.59 ± 0.21 % ID/g
  Biodistribution: lung: 2.89 ± 0.93 % ID/g
  Biodistribution: muscle: 0.22 ± 0.06 % ID/g
  Biodistribution: spleen: 2.07 ± 0.68 % ID/g
  Biodistribution: stomach: 9.36 ± 2.18 % ID/g
  Biodistribution: thyroid: 3.74 ± 1.42 % ID/g
  Biodistribution: PC-3 PiP: 12.1 ± 5.03 % ID/g
  Biodistribution: PC-3 flu: 0.84 ± 0.23 % ID/g
